Molecular target: T1, PP2A (Bos taurus, UniProt P67774)
T1 construct: gene PPP2CA
Assay: colorimetric pNPP phosphatase assay with purified enzyme, […] min pre-incubation
Assay type: biochemical

T1 sequence (P67774 whole entry): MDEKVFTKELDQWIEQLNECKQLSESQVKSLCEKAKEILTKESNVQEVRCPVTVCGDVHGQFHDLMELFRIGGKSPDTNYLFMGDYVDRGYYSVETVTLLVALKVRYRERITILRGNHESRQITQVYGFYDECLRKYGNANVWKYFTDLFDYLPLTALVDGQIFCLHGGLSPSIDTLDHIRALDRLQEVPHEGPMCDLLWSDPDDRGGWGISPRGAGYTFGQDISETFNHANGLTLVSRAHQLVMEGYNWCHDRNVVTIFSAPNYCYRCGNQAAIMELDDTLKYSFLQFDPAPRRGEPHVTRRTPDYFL

IC50 [nM]	Structure (SMILES)
~0.65	CCCc1c2oc(C(=O)O)cc(=O)c2cc2c(=O)cc(C(=O)O)n(CC)c12 [nedocromil]
~1.7	O=C(O)c1cc(=O)c2c(OCC(O)COc3cccc4oc(C(=O)O)cc(=O)c34)cccc2o1 [cromoglycate]

Source: PMC2888050, “Cromoglycate drugs suppress eicosanoid generation in U937 cells by promoting the release of Anx-A1” (Biochemical Pharmacology, 2009)
